Target: human recombinant PDE9 enzyme (Homo sapiens, UniProt O76083)
Assay: PDE9 IC50, 96-well assay (Phosphodiesterase SPA)
Format: biochemical

Sequence of human recombinant PDE9 enzyme (O76083 whole entry): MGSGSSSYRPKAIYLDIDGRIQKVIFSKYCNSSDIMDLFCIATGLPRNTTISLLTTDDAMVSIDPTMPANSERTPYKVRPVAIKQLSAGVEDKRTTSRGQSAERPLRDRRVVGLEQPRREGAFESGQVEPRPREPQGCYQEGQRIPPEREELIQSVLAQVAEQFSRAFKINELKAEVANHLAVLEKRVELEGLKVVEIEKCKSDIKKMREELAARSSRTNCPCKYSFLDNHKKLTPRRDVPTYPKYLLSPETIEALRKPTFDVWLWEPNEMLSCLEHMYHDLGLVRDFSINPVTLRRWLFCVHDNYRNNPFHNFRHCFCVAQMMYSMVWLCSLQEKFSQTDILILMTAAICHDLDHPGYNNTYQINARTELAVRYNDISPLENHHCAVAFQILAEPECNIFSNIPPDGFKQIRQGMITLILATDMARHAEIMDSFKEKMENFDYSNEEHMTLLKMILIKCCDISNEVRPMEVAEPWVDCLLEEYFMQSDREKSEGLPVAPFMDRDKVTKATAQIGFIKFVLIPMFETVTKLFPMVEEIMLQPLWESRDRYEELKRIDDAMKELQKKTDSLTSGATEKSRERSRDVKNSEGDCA

IC50: 9.49 nM
SMILES: C[C@H](c1nc2c(cnn2C2CCCC2)c(=O)[nH]1)N1CC(Oc2ncccn2)C1 [Example 13, 1-Cyclopentyl-6-{(1R)-1-[3-(pyrimidin-2-yloxy)azetidin-1-yl]ethyl}-1,5-dihydro-4H-pyrazolo[3,4-d]pyrimidin-4-one]

Reference: patent US8278295B2, “Amino-heterocyclic compounds” (Pfizer Inc., priority 2009, dated 2012)
